These are literature values, as cited in patent US20200030253A1, “Methods and compositions for treatment of body conditions” (priority 2018, published 2020).

The conditions of the data set: octanol-water.

Consider `C=C(C)[C@@H]1CCC(C)=C[C@H]1c1c(O)cc(CCCCC)cc1O` [Cannabidiol], for which the “Koctanol-water (lipophilicity)” value was 6-7.
